Structures can show the parent of a compound that is named as a salt.
What follows are compounds tested against indoleamine 2, 3-dioxygenase (IDO1) (Homo sapiens, UniProt P14902) (assay: HeLa IDOi assay (kynurenine detection by mass spectrometry)). Settings: IFN-γ stimulated human epithelial HeLa cells, 2 days.
Assay type: cell-based
Set-up: human epithelial HeLa cells (CCL-2; host or cells: HeLa cells stimulated with human IFN-γ
Description: Compounds of the present invention were tested via high-throughput cellular assays utilizing detection of kynurenine via mass spectrometry and cytotoxicity as end-points. For the mass spectrometry and cytotoxicity assays, human epithelial HeLa cells (CCL-2; ATCC®, Manassas, Va.) were stimulated with human interferon-γ (IFN-γ) (Sigma-Aldrich Corporation, St. Louis, Mo.) to induce the expression of indoleamine 2, 3-dioxygenase (IDO1). Compounds with IDO1 inhibitory properties decreased the amount of kynurenine produced by the cells via the tryptophan catabolic pathway. Cellular toxicity due to the effect of compound treatment was measured using CellTiter-Glo® reagent (CTG) (Promega Corporation, Madison, Wis.), which is based on luminescent detection of ATP, an indicator of metabolically active cells.
In preparation for the assays, test compounds were serially diluted 3-fold in DMSO from a typical top concentration of 5 mM and plated at 0.5 μL in 384-well, polystyrene, clear bottom, tissue culture treated plates with lids (Greiner Bio-One, Kremsmünster, Austria) to generate 11-point dose response curves. Low control wells (0% kynurenine or 100% cytotoxicity) contained either 0.5 μL of DMSO in the presence of unstimulated (−IFN-γ) HeLa cells for the mass spectrometry assay or 0.5 μL of DMSO in the absence of cells for the cytotoxicity assay, and high control wells (100% kynurenine or 0% cytotoxicity) contained 0.5 μL of DMSO in the presence of stimulated (+IFN-γ) HeLa cells for both the mass spectrometry and cytotoxicity assays.
Frozen stocks of HeLa cells were washed and recovered in DMEM high glucose medium with HEPES (Thermo Fisher Scientific, Inc., Waltham, Mass.) supplemented with 10% v/v certified fetal bovine serum (FBS) (Thermo Fisher Scientific, Inc., Waltham, Mass.), and 1× penicillin-streptomycin antibiotic solution (Thermo Fisher Scientific, Inc., Waltham, Mass.). The cells were diluted to 100,000 cells/mL in the supplemented DMEM medium. 50 μL of either the cell suspension, for the mass spectrometry assay, or medium alone, for the cytotoxicity assay, were added to the low control wells, on the previously prepared 384-well compound plates, resulting in 5,000 cells/well or 0 cells/well respectively. IFN-γ was added to the remaining cell suspension at a final concentration of 10 nM, and 50 μL of the stimulated cells were added to all remaining wells on the 384-well compound plates. The plates, with lids, were then placed in a 37° C., 5% CO2 humidified incubator for 2 days.
Following incubation, the 384-well plates were removed from the incubator and allowed to equilibrate to room temperature for 30 minutes. For the cytotoxicity assay, CellTiter-Glo® was prepared according to the manufacturer's instructions, and 10 μL were added to each plate well. After a twenty minute incubation at room temperature, luminescence was read on an EnVision® Multilabel Reader (PerkinElmer Inc., Waltham, Mass.). For the mass spectrometry assay, 10 μL of supernatant from each well of the compound-treated plates were added to 40 μL of acetonitrile, containing 10 μM of an internal standard for normalization, in 384-well, polypropylene, V-bottom plates (Greiner Bio-One, Kremsmünster, Austria) to extract the organic analytes. Following centrifugation at 2000 rpm for 10 minutes, 10 μL from each well of the acetonitrile extraction plates were added to 90 μL of sterile, distilled H2O in 384-well, polypropylene, V-bottom plates for analysis of kynurenine and the internal standard on the RapidFire 300 (Agilent Technologies, Santa Clara, Calif.) and 4000 QTRAP MS (SCIEX, Framingham, Mass.). MS data were integrated using Agilent Technologies' RapidFire Integrator software, and data were normalized for analysis as a ratio of kynurenine to the internal standard. […]

Sequence of indoleamine 2, 3-dioxygenase (IDO1) (P14902 whole entry): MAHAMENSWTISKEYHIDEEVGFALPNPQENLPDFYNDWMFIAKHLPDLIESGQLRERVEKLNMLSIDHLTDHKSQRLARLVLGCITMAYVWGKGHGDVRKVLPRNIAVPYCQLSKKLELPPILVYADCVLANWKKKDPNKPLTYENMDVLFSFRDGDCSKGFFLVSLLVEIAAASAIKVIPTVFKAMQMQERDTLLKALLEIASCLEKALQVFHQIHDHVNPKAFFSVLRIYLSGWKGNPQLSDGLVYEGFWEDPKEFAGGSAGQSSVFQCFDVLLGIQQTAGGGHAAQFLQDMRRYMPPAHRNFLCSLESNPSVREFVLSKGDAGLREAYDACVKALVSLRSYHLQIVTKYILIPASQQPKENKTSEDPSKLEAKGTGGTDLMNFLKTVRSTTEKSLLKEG

SMILES | EC50
CC(C)CN(CC(C)C)c1ccc(C(C)CC(=O)O)cc1Nc1nc(-c2ccccc2)co1 (stereo not shown) [Example 3, 3-(4-(diisobutylamino)-3-((4-phenyloxazol-2-yl)amino)phenyl)butanoic acid] | 501 nM
CC(C)CN(CC(C)C)c1ccc(C(C)CC(=O)O)cc1Nc1nc(C(C)C)co1 (stereo not shown) [Example 4, 3-(4-(diisobutylamino)-3-((4-isopropyloxazol-2-yl)amino)phenyl)butanoic acid] | 631 nM
CC(C)CN(CC(C)C)c1ccc(C(C)CC(=O)O)cc1Nc1nc(C(F)(F)F)co1 (stereo not shown) [Example 5, 3-(4-(diisobutylamino)-3-((4-(trifluoromethyl)oxazol-2-yl)amino)phenyl)butanoic acid] | 20 nM
CC(C)CN(c1ccc(C(C)CC(=O)O)cc1Nc1nc2ccccc2o1)C1CCCCC1 (stereo not shown) [Example 8, 3-(3-(benzo[d]oxazol-2-ylamino)-4-(cyclohexyl(isobutyl)amino)phenyl)butanoic acid] | 31.6 nM
CC(C)CN(c1ccc(C(C)CC(=O)O)cc1Nc1ccnc(Cl)n1)C1CCCCC1 (stereo not shown) [Example 13, 3-(3-((2-chloropyrimidin-4-yl)amino)-4-(cyclohexyl(isobutyl)amino)phenyl)butanoic acid] | 12.6 nM
COc1nccc(Nc2cc(C(C)CC(=O)O)ccc2N(CC(C)C)C2CCCCC2)n1 (stereo not shown) [Example 14, 3-(4-(cyclohexyl(isobutyl)amino)-3-((2-methoxypyrimidin-4-yl)amino)phenyl)butanoic acid] | 39.8 nM
Cc1cnc(Nc2cc(C(C)CC(=O)O)ccc2N(CC(C)C)CC(C)C)s1 (stereo not shown) [Example 15, 3-(4-(diisobutylamino)-3-((5-methylthiazol-2-yl)amino)phenyl)butanoic acid] | 158 nM
Cc1csc(Nc2cc(C(C)CC(=O)O)ccc2N(CC(C)C)CC(C)C)n1 (stereo not shown) [Example 24, 3-(4-(diisobutylamino)-3-((4-methylthiazol-2-yl)amino)phenyl)butanoic acid] | 316 nM

Second part, the compound after the results:

EC50 | SMILES
3.98 nM | CC(C)CN(CC(C)C)c1ccc(C(C)CC(=O)O)cc1Nc1nc2ccccc2[nH]1 (stereo not shown) [Example 2, 3-(3-((1H-benzo[d]imidazol-2-yl)amino)-4-(diisobutylamino)phenyl)butanoic acid]
2.51 nM | CC(C)CN(c1ccc(C(C)CC(=O)O)cc1Nc1nc2ccccc2[nH]1)C1CCCCC1 (stereo not shown) [Example 6, 3-(3-((1H-benzo[d]imidazol-2-yl)amino)-4-(cyclohexyl(isobutyl)amino)phenyl)butanoic acid]
5.01 nM | CC(C)CN(c1ccc(C(C)CC(=O)O)cc1Nc1nc(Cl)ns1)C1CCCCC1 (stereo not shown) [Example 7, 3-(3-((3-chloro-1,2,4-thiadiazol-5-yl)amino)-4-(cyclohexyl(isobutyl)amino)phenyl)butanoic acid]
3.98 nM | CC(C)CN(c1ccc(C(C)CC(=O)O)cc1Nc1nc2ccccc2s1)C1CCCCC1 (stereo not shown) [Example 9, 3-(3-(benzo[d]thiazol-2-ylamino)-4-(cyclohexyl(isobutyl)amino)phenyl)butanoic acid]
100 nM | CC(C)CN(c1ccc(C(C)CC(=O)O)cc1Nc1nc(-c2ccccc2)co1)C1CCCCC1 (stereo not shown) [Example 10, 3-(4-(cyclohexyl(isobutyl)amino)-3-((4-phenyloxazol-2-yl)amino)phenyl)butanoic acid]
100 nM | CC(C)CN(CC(C)C)c1ccc(C(C)CC(=O)O)cc1Nc1ccnc(Cl)n1 (stereo not shown) [Example 11, 3-(3-((2-chloropyrimidin-4-yl)amino)-4-(diisobutylamino)phenyl)butanoic acid, 2,2,2-trifluoro-acetic acid salt]
126 nM | CC(C)CN(CC(C)C)c1ccc(C(C)CC(=O)O)cc1Nc1cnc(-c2ccccc2)s1 (stereo not shown) [Example 16, 3-(4-(diisobutylamino)-3-((2-phenylthiazol-5-yl)amino)phenyl)butanoic acid]
25.1 nM | CCOC(=O)c1ncc(Nc2cc(C(C)CC(=O)O)ccc2N(CC(C)C)CC(C)C)s1 (stereo not shown) [Example 17, 3-(4-(diisobutylamino)-3-((2-(ethoxycarbonyl)thiazol-5-yl)amino)phenyl)butanoic acid]

From patent US10472336B2, “Modulators of indoleamine 2,3-dioxygenase” (GlaxoSmithKline Intellectual Property (No.2) Limited, priority 2015, dated 2019)
